The subject of one series is T1, LOX129 (LOX-1).
T1 construct: 6His-tag with thrombin cleavage site (N, cleaved yes); made in house; host or cells: E. coli SHuffle cells (New England BioLabs), pET28a
In words: Native ESI-MS of LOX-1 with ligand. In kind it is binding, human. Conditions: Vc = 60V; up to 10 eq ligand. As for the experimental part: This is in agreement with the biophysical data obtained so far. The ITC measurements gave a stoichiometry of protein:ligand of 1.8 which fits to multiples of a 2:1 complex. To confirm that the crystallographically observed tetrameric arrangement exists also in solution native Electrospray-Ionization Mass Spectrometry (ESI-MS) analysis was used. A MS experiment using covalent dimeric LOX129 under denaturing conditions was performed giving a mass of 33773 Da, corresponding to a mass difference of 13 Da to the theoretical molecular weight of 33786 Da (Supplementary Fig. 9). This mass difference corresponds to the three intramolecular and the one intermolecular disulfide bonds (14 Da). MS analysis under non denaturing conditions (Fig. 4a) measured LOX129 mainly as a dimer. Only traces of the tetrameric state were detectable. A binding experiment of BI-0115 to LOX-1 was performed using soft MS tuning parameters (Vc = 40V) in order to maintain BI-0115 interactions in the gas phase.
Mass spectrometry experiments were carried out on an electrospray time-of-flight mass spectrometer (LCT, Waters, Manchester, UK) equipped with an automated chip-based nanoESI device (Triversa Nanomate, Advion Biosciences, Ithaca, NY). […]

A short description of series [1]: Metabolic stability in mouse liver microsomes. The series is classed as in vitro ADME. The note with it: in vitro clearance as % hepatic blood flow, n = 1. As for the experimental part:
(§1) The metabolic degradation of the test compound is assayed at 37 °C with microsomes. The final incubation volume of 100 µl per time point contains TRIS buffer pH 7.6 at RT (0.1 M), magnesium chloride (5 mM), microsomal protein (1 mg/ml or 0.5 mg/ml depending on species) and the test compound at a final concentration of 1 µM.
(§2) Following a short preincubation period at 37 °C, the reactions were initiated by addition of beta-nicotinamide adenine dinucleotide phosphate, reduced form (NADPH, 1 mM) and terminated by transfering an aliquot into solvent after different time points. The quenched incubations are pelleted by centrifugation (10000 g, 5 min). An aliquot of the supernatant is assayed by LC-MS/MS for the amount of parent compound. The slope of the semi logarithmic plot of the concentration-time profile determines the half-life. The clearance is calculated by upscaling considering the amount of protein in the incubation, microsomal recovery and liver weight and normalized to the hepatic blood flow of the respective species. The number of experiments for BI-0115 is n = 1.

Series [2] in a line: Metabolic stability in rat liver microsomes. In kind it is in vitro ADME. The note with it: in vitro clearance as % hepatic blood flow, n = 1. The procedure: as §1, §2
For orientation: Microsomes from liver hold many membrane-bound enzymes, among them those of drug oxidation.

Series [3] is described as follows: Metabolic stability in human liver microsomes. The series is classed as in vitro ADME. The note with it: in vitro clearance as % hepatic blood flow, n = 1. The procedure: as §1, §2
Another series relates to T2, LOX129.
T2 construct: 6His-tag with thrombin cleavage site (N, cleaved yes); made in house; host or cells: E. coli SHuffle cells (New England BioLabs), pET28a
Put plainly: STD-NMR binding, LOX129. More on the design: species or system human. The note with it: 5 µM LOX129, 250 µM compound; n = 1. The procedure:
Selected cluster representatives were analyzed by multiple biophysical methods to further validate and characterize the identified compounds.
STD NMR binding experiments[51] were performed in 2.5 mm NMR tubes on a Bruker AVII+ 600 MHz spectrometer equipped with a 5 mm cryo-TCI probe and z-gradients. 5 μM LOX129 was incubated with 250 μM BI-0115 in 25 mM Na-phosphate, 100 mM NaCl pH 7.5 in D2O at 298 K and a total d6-DMSO concentration of 1%. The on- and off-resonance spectra were recorded in an interleaved fashion with 256 transients, respectively. Saturation was achieved by irradiation with a Gaussian pulse train for 3 s at resonance frequencies of 100 Hz and 20 kHz, respectively. Residual protein signals were suppressed by employing a 30 ms spin lock pulse prior to acquisition. Water suppression was achieved by a WATERGATE sequence employing a double gradient echo[53]. The signal intensity in the saturation transfer difference spectrum was normalized by the following equation to yield the %STD value: %STD = 100 * (((I(0)-I(sat))/I(0))), where I(0) is the intensity of one signal in the off-resonance and I(sat) the intensity of one signal in the on-resonance spectrum, respectively. Topspin 3.0 (Bruker Biospin) was used to process and analyze data.

As to `CCCN1C(=O)c2ccc(Cl)cc2Nc2ncccc21` [BI-0115], the “ligand induced tetramerization, increase of the 16+ charge state” value in the series on LOX129 (LOX-1) is recorded as “up to 33%”. Besides, the “micr. Stab mLM” value in series [1] is listed as 95 %QH. Moreover, the “micr. Stab rLM” value in series [2] is given as 95 %QH. The “micr. Stab hLM” value in series [3] was 77 %QH. In addition, the STD-NMR result in the series with LOX129 is on record as “binding”.

(Values after PMC9814544 (Communications Chemistry, 2020).)
